Measured values taken from patent publication US5292498A, “Method of treating lung disease with uridine triphosphates” (The University of North Carolina At Chapel Hill, priority 1991, dated 1994).

Experiments:
[1] = test system: normal human nasal epithelium; experiment: Bioelectric studies (short circuit current, Isc) of normal human nasal epithelium in Ussing chambers; type: cell-based; settings: for increase in Isc: dipyridamole 10^-6 M; for rank order of potency for Cl^- secretion: FIG. 2; for character of concentration-effect curve including 10^-3 M / character of log concentration-effect curve / rank order of potency for increase in Isc / change in ion transport rates: basolateral surface; for character of concentration-effect curve including 10^-3 M: 10^-3 M drug considered; for character of log concentration-effect curve: 10^-7 to 10^-4 M; for rank order of potency for increase in Isc / change in ion transport rates: FIG. 1; for change in ion transport rates: compared to ATP curve
Description: (§1) Freshly excised human nasal epithelium from normal or cystic fibrosis subjects was grown in primary culture in F-12, hormone-supplemented medium in accordance with known procedures. See R. Wu et al., Am. Rev. Respir. Dis. 132, 311-320 (1985). For [Ca^2+ ]i measurements, cultures were grown on non-fluorescent vitrogen substrates on glass coverslips. Cultures for electrophysiologic studies were grown to confluence on permeable collagen matrix supports (CMS), allowing addition of agonists to the basolateral or apical surface of the epithelial sheet.
(§2) Confluent monolayers of primary human nasal epithelium were mounted in modified Ussing chambers in accordance with known procedures. See, e.g., R. Boucher et al., J. Physiol. (Lond.) 405, 77-103 (1988); M. Knowles et al., Science 221, 1067-1070 (1983). The studies described below were performed under short circuit current conditions at 37° C., and in some studies, amiloride was added to the apical bath (10^-4 M) to block transepithelial sodium transport. Changes in transepithelial potential difference (Vt), resistance (Rt) and short circuit current (Isc) were measured in response to addition of various nucleotides. Each cultured preparation was exposed to only one concentration of an agonist on either the basolateral or apical surface to avoid the tachyphylaxis observed in preliminary cumulative dose response studies. To construct concentration-effect relationships of responses to nucleotides, it was assumed that the same maximum response to an agonist could be induced from each tissue culture preparation from the same individual.
The effects of extracellular ATP on normal human nasal epithelium were investigated employing bioelectric measurements of ion transport activity when the nucleotide was applied to either the apical or basolateral membrane. […] In general, the change in Isc induced by application of ATP to the apical or the basolateral side returned to baseline or below within 5 minutes after addition of agonist. […] Apical pretreatment with amiloride (10^-4 M) removes active Na^+ absorption as a component of the Isc so that the residual Isc reflects a Cl^- secretory current (R. Boucher et al., J. Clin. Invest. 78, 1245-1252 (1986); N. Willumsen et al., Am. J. Physiol. 256, C1033-C1044 (1989)).
A concentration-effect relationship was found when ATP was applied to normal human nasal epithelium under basal conditions (data not shown). Comparisons were made between responses of tissues from different donors based on the peak change in Isc following ATP application. The curve describes the mean peak change in Isc in response to log increasing concentrations of ATP applied to the apical or basolateral surface.
Concentration-effect relationships were also found for ATP applied to the apical or basolateral membrane of amiloride-pretreated tissues (data not shown). Again, the nucleotide's effect on ion transport was examined as the mean peak change in Isc after ATP application.
(§3) The purinergic receptor subtype(s) linked to regulation of ion transport of human nasal epithelium were characterized by obtaining concentration-effect relationships for a variety of purine and pyrimidine agonists in preparations derived from normal and CF patients. We characterized receptor subtype(s) on the […] surface by measuring nucleotide effect on basal Na^+ transport rates. Because therapies designed to induce Cl^- secretion might best be delivered by the aerosol route, receptor subtype characterization on the apical barrier was performed in the presence of amiloride. The effect of extracellular nucleotides on ion transport is reported as the percent change in Isc from control values when applied to the basolateral or apical surface of the culture. Basal pre-agonist currents were similar for tissues in each concentration group.

[2] = test system: normal human nasal epithelial cells; experiment: Intracellular calcium [Ca^2+ ]i in single normal human nasal epithelial cells (Fura-2); type: cell-based; settings: concentration-effect curves, FIG. 3
Description: as §1
(§4) Primary human nasal epithelial cells grown to confluence on vitrogen coated coverslips were loaded with a final concentration of 3 μM Fura-2/AM at 37° C. for 30 minutes. The cells were then washed in NaCl Ringer and mounted in a chamber for measurements of fluorescence. To reduce the rate of leakage of Fura-2 from the cell into the extracellular space and avoid time-dependent compartmentalization of the probe, all measurements of [Ca^2+ ]i were performed at 25° C. At this temperature,no vesicular bright spots indicative of compartmentalization of the probe were observed.
Measurements of [Ca^2+ ]i in single human nasal epithelial cells were obtained with a modular microspectrofluorimeter (SPEX Industries, Inc., Edison, N.J.) attached to a Zeiss Axiovert IM 35 microscope. The system was equipped with a xenon lamp, beam splitter, two monochromators and a rotating chopper mirror that permitted excitation of cell fluorescence at alternating wavelengths of 340 and 380 nm (emission ≥450 nm). The fluorescent signal from a single cell was measured with a photometer equipped with a pinhole (spot diameter of 3-5 μm) that excluded signals from adjacent cells.
After agonist was added, the fluorescent signal was quenched by a NaCl ringer solution containing 1.5×10^-4 M digitonin and 10^-3 M MnCl2. The remaining signal at each excitation wavelength, equivalent to the background fluorescence in non loaded cells, was subtracted from data from Fura-2/AM loaded cells before the ratio (340 nm/380 nm) was taken. The 340 nm/380 nm ratio was converted to an actual [Ca^2+ ]i measurement by using the external calibration standards and the formula derived by G. Grynkiewicz et al., J. Biol. Chem. 260, 3440-3450 (1985), used with dual wavelength measurements: [Ca^2+ ]i =K [(Rx --Ro)/(Rs --Rx)], with Ro and Rs representing the ratios at 0 Ca^2+ and saturating Ca^2+, respectively. Rx represents the experimental ratio.
To investigate whether changes in [Ca^2+ ]i might be related to regulation of ion transport, receptor characterization was performed by measuring changes in [Ca^2+ ]i in response to a number of nucleotide drugs. Concentration-effect curves for agonists active at P2x, P2y subtype or UTP sensitive receptors and other purine or pyrimidine receptor agonists were generated, measuring mean change in [Ca^2+ ]i in response to agonist concentration. Data are shown in FIG. 3, which gives log concentration-effect relationships of purinergic and pyrimidinergic compounds on [Ca^2+ ]i (mean change in [Ca^2+ ]i over basal levels).

[3] = test system: CF human nasal epithelium; experiment: Bioelectric studies (Isc) of cystic fibrosis (CF) human nasal epithelium; type: cell-based; settings: for Isc response tracing: apical, amiloride-pretreated, FIG. 4C
Description: as §1, §2, §3
Availability of Cystic Fibrosis (CF) tissues is limited, and our investigation of effects of nucleotides was restricted to examining regulation of Cl^- secretion rates and [Ca^2+ ]i levels by ATP and UTP.

[4] = test system: CF nasal epithelial cells; experiment: Intracellular calcium [Ca^2+ ]i in single CF nasal epithelial cells (Fura-2); type: cell-based, human; settings: FIG. 6
Description: as §1, with “132, 311-320 (1985).” left out
as §4, with “C.” for “C. At this temperature,no vesicular bright spots indicative of compartmentalization of the probe were observed.”
Measurements of [Ca^2+ ]i in single human nasal epithelial cells were obtained with a modular microspectrofluorimeter (SPEX Industries, Inc., Edison, N.J.) attached to a Zeiss Axiovert IM 35 microscope. […] The fluorescent signal from a single cell was measured with a photometer equipped with a pinhole (spot diameter of 3-5 μm) that excluded signals from adjacent cells. […]

[5] = 25° C.; read-out: Kd (effective dissociation constant for Fura-2); cited from earlier work
[6] = apical surface, amiloride-pretreated

SMILES	rank order of potency for Cl^- secretion [1, 6]	character of concentration-effect curve including 10^-3 M [1]	character of log concentration-effect curve [1]	rank order of potency for increase in Isc [1]	effectiveness for raising [Ca^2+ ]i [2]	also measured
Nc1ncnc2c1ncn2[C@@H]1O[C@H](CO)[C@@H](O)[C@H]1O [adenosine]	–	–	–	–	–	increase in Isc ([1]; 10^-4 M, apical surface, amiloride-pretreated, n=8): 10±6%; increase in Isc ([1]; 10^-5 M or 10^-4 M, basolateral barrier, n=8 each dose): less than 5%; increase in Isc ([1]; 10^-5 M, apical surface, amiloride-pretreated, n=7): 10±7%; change in Isc compared to ATP ([1]; following preincubation with dipyridamole 10^-6 M): only small and variable changes in Isc compared to ATP
O=c1ccn([C@@H]2O[C@H](COP(=O)(O)OP(=O)(O)OP(=O)(O)O)[C@@H](O)[C@H]2O)c(=O)[nH]1 [UTP, uridine 5'-triphosphate]	ATP≥UTP>ATPγS>ADP>2MeSATP>ADPβS	biphasic in character	sigmoidal character	2MeSATP>UTP≥ATP>ATPγS>ADP>ADPβS	most effective agonists	Isc response tracing ([3]; UTP 10^-4 M as printed): Cl^- secretory response; Isc response tracing ([3]; UTP 10^-6 M as printed): Cl^- secretory response; change in Isc over basal levels ([3]; apical surface, amiloride-pretreated CF tissues): routinely stimulated increases in Cl^- secretion; [Ca^2+ ]i response in CF tissues [4]: Increases in [Ca^2+ ]i
Nc1ncnc2c1ncn2[C@@H]1O[C@H](COP(=O)(O)OP(=O)(O)OP(O)(O)=S)[C@@H](O)[C@H]1O [ATPγS]	ATP≥UTP>ATPγS>ADP>2MeSATP>ADPβS	biphasic in character	sigmoidal character	2MeSATP>UTP≥ATP>ATPγS>ADP>ADPβS	most effective agonists	–
Nc1ncnc2c1ncn2[C@@H]1O[C@H](COP(=O)(O)OP(=O)(O)O)[C@@H](O)[C@H]1O [ADP]	ATP≥UTP>ATPγS>ADP>2MeSATP>ADPβS	–	–	2MeSATP>UTP≥ATP>ATPγS>ADP>ADPβS	–	–
O=c1[nH]c(=O)n([C@@H]2O[C@H](COP(=O)(O)OP(=O)(O)OP(=O)(O)O)[C@@H](O)[C@H]2O)cc1Br [5BrUTP, 5-bromo-uridine 5'-triphosphate]	–	–	–	–	essentially as effective as UTP	–
Nc1ncnc2c1ncn2[C@@H]1O[C@H](COP(=O)(O)OP(O)(O)=S)[C@@H](O)[C@H]1O [ADPβS]	ATP≥UTP>ATPγS>ADP>2MeSATP>ADPβS	biphasic in character	sigmoidal character	2MeSATP>UTP≥ATP>ATPγS>ADP>ADPβS	little effect	–
Nc1ncnc2c1ncn2[C@@H]1O[C@H](COP(=O)(O)OP(=O)(O)CP(=O)(O)O)[C@@H](O)[C@H]1O [βγMeATP, β,γ-methylene ATP]	–	–	–	–	little effect	change in ion transport rates [1]: little change in ion transport rates
CSc1nc(N)c2ncn([C@@H]3O[C@H](COP(=O)(O)OP(=O)(O)OP(=O)(O)O)[C@@H](O)[C@H]3O)c2n1 [2MeSATP, 2-methylthio ATP]	ATP≥UTP>ATPγS>ADP>2MeSATP>ADPβS	–	–	2MeSATP>UTP≥ATP>ATPγS>ADP>ADPβS	little effect	–
Cc1ccc(N(CC(=O)O)CC(=O)O)c(OCCOc2cc3cc(-c4ncc(C(=O)O)o4)oc3cc2N(CC(=O)O)CC(=O)O)c1 [Fura-2]	–	–	–	–	–	Kd [5]: 0.157 µM
Nc1ncnc2c1ncn2[C@@H]1O[C@H](COP(=O)(O)CP(=O)(O)OP(=O)(O)O)[C@@H](O)[C@H]1O [αβMeATP, α,β-methylene ATP]	–	–	–	–	little effect	change in ion transport rates [1]: little change in ion transport rates
